Reference: patent US20260021092A1, “STRUCTURE-BASED DESIGN OF A NOVEL CLASS OF DRUGS FOR NEURODEGENERATIVE DISEASE” (The Regents of the University of California, priority 2022, published 2026)

Experiments:
Neuro2a cells = assay: MTT cytotoxicity assay in Neuro2a cells; assay type: cell-based; conditions: final small molecule concentration of 10 μM
Protocol: 90 μL of Neuro2a cells were plated on clear 96 well plates (Falcon 353072) at 6000 cells per well and given 24 hours to adhere to the plate. Subsequent treatment consisted of PHF samples that were coincubated with or without 100 μM of small molecules for 48 hours at 37° C., with 10 μL applied per well for a final small molecule concentration of 10 μM. After another 24-hour incubation at 37° C., 20 μL of Thiazolyl Blue Tetrazolium Bromide MTT dye (Sigma; 5 mg/mL stock in DPBS) was added to each well and further incubated for 3.5 hours at 37° C. Assay was arrested by replacement of all media with 100% DMSO and transfer to a SpectraMax MF reader. Background 700 nm readings were subtracted from the absorbance readings at 570 nm. Cells treated with 100% DMSO were designated as 0% viable and those treated only with vehicle were designated as 100% viable. Other well readings were normalized to these values.

[1] = biological target: T1, alpha-synuclein aggregates (Homo sapiens, UniProt P37840); assay: Alpha-synuclein aggregation in DDP1 C. elegans; assay type: in vivo; conditions: for soluble versus insoluble alpha-synuclein in worm homogenate by Western blot: 100 μM on plates; for number of alpha-synuclein aggregates in the head region: 100 μM on plates from L1, day 6 of adulthood
T1 construct: host or cells: transgenic C. elegans strain DDP1 (unc-54 promoter)
Source text: The DDP1 C. elegans strain overexpresses alpha-synuclein fused with yellow fluorescent protein (YFP) and cyan fluorescent protein (CFP)^22,23. FRET-positive fluorescent alpha-synuclein aggregates can then be visualized and quantified in the adult worms. […] PBS was used as a vehicle control. At day 6 of adulthood, the worms were visualized, and the number of aggregates were quantified by fluorescent microscopy. […] Treated worms were also homogenized for protein analysis by Western blot. Homogenate for each experimental condition was separated into insoluble pellet fractions (P) and soluble supernatant (S) fractions. For untreated worm homogenate, the majority of alpha-synuclein is found in the insoluble pellet.
For C. elegans experiments, the same protocol was used, except following the treatment period worms were harvested, flash frozen, then homogenized for protein extraction. The membrane was washed with TBST overnight before repeating the Western blot analysis for beta-actin (primary antibody anti-beta-actin (C4) (Santa Cruz Biotechnology, cat #sc-47778, lot #J1119; 1:500 dilution in 5% milk/TBST); horseradish peroxidase-conjugated secondary antibody (goat polyclonal anti-mouse IgG (Abcam; cat #ab205719, lot #GR3271082-2); 1:5000 dilution in 5% milk/TBST).
The DDP1 (uonExl [unc-54::αSyn::CFP+unc-54::αSyn::YFP(Venus)]) strain was acquired from the Caenorhabditis Genetics Center (CGC) and used for experiments. C. elegans were grown and maintained using standard conditions. Worms were synchronized using hypochlorite bleaching, hatched ovemight in M9 media (5 g/l NaCl, 6 g/l Na2HPO4, 3 g/l KH2PO4, […]) at 17° C., then cultured on plates with nematode growth medium (NGI; 17 g/l agar, 2.5 g/l peptone, 3 g/l NaCl 1 mM CaCl2, 1 mM MgSO4, 25 mM KH2PO4 pH 6, 5 μg/ml cholesterol) seeded with OP50 E. coli. Strains were maintained at 17° C. […] Treatment plates were then seeded with heat treated OP50 (30 min at 65° C.), according to the “NGM dead” method as previously published^36. Synchronized L1 worms were then added to the treatment plates and grown for 7 days. PBS was used as a control condition. 75 μM FUDR was added on the third day of growth. For imaging, worms were mounted onto 5% agar pads on glass slides, immobilized with 1% NaN3 solution, and imaged by fluorescent microscopy (GFP channel) using a ZEISS Axio Observer D1 fluorescence microscope. Alpha-synuclein aggregates in the head region were quantified.

[2] = Brain penetration in mice (LC-MS/MRM of plasma and brain); assay type: in vivo, C57BL/6J mice; conditions: 0.5 mg/kg tail vein injection, 1 hour after dosing, range of n=3; for concentration at 1 h: C57BL/6J, mouse, plasma, intravenous
Protocol: The compounds were administered by tail vein injection at a dose of 0.5 mg/kg of body weight to C57BL/6J mice (n=3 for each compound). […] To detect and quantify the drugs we used a sensitive, selective, and specific liquid chromatographic/tandem mass spectrometric multiple reaction monitoring (LC-MS/MRM) assay. The sample extraction protocol for plasma and brain was optimized with spiking experiments in which the authentic compounds were added to plasma and brain from drug-naive mice. […] Blood was collected by cardiac puncture and plasma was recovered as the supernatant after centrifugation (3000×g, 10 m) and stored frozen. Brains were collected by standard dissection and immediately frozen. To measure the average drug concentrations across the entire brains each left hemisphere (average wet weight 250 mg) was processed. The samples were spiked with the internal standard (IS, CNS-11F, 15 pmol in 15 μL of acetonitrile) and homogenized with a probe sonicator (Kontes microsonic cell disrupter, 30 sec) after the addition of acetonitrile/water (4:1, v/v, 2500 μL). The homogenates were divided evenly into three polypropylene microcentrifuge tubes (met) for triplicate measurements of each sample. Following centrifugation (16,100g, 5 min), the supernatants were transferred to clean mets and dried in a vacuum centrifuge. The pellets were treated with acetonitrile (25 μL) with vigorous mixing, followed by water (25 μL) with more vigorous mixing, followed by more water (50 μL) for a total volume of 100 μL. The samples were mixed again, centrifuged (16,100g, 5 min) and the supernatants were transferred to HPLC injector vials. […] These samples were processed as described above. Plasma samples (50 μL, in duplicate for each mouse) were spiked with the internal standard (IS, CNS-11F, 5 pmol in 5 μL of acetonitrile), and vigorously mixed after the addition of acetonitrile (500 μL). Following centrifugation (16,100g, 5 min), the supernatants were transferred to clean mcts and dried in a vacuum centrifuge. […] The effluent from the column was directed to an electrospray ion source (Agilent Jet Stream) connected to a triple quadrupole mass spectrometer (Agilent 6460) operating in the positive ion tandem mass spectrometric multiple reaction monitoring (MRM) mode in which the intensity of the transition of preselected parent ions to preselected fragment ions was recorded after signal optimization (collision energy, fragmentor voltage and collision cell accelerator voltage) with instrument manufacturer-supplied software (Mass Hunter). […] Peak areas were integrated and recorded, and a curve was constructed from the data obtained from the standards in which the ratio of drug peak area/IS peak area was plotted against the amount of drug in each sample. […]

Compound	neuronal cytotoxicity of compound alone (Neuro2a cells)	soluble versus insoluble alpha-synuclein in worm homogenate by Western blot [1]	number of alpha-synuclein aggregates in the head region [1]	concentration in brain tissue [2]	concentration at 1 h [2]
O=C(O[C@@H]1Cc2c(O)cc(O)cc2O[C@@H]1c1cc(O)c(O)c(O)c1)c1cc(O)c(O)c(O)c1 [EGCG, epigallocatechin gallate]	no significant cytotoxicity	–	–	–	–
Cc1cccc(C)c1NC(=O)Cn1nc(Cc2ccccc2)c2ccccc2c1=O [CNS-11g, 2-(4-benzyl-1-oxophthalazin-2-yl)-N-(2,6-dimethylphenyl)acetamide]	–	solubilization of the alpha-synuclein	reduction of total aggregates	4.2-26.1 ng/g of brain	10.4 to 58.8 nM
Cc1cc(C)c(NC(=O)Cn2nc3c4c(cccc4c2=O)-c2ccccc2-3)c(C)c1 [CNS-11, N-mesityl-2-(3-oxoindeno[1,2,3-de]phthalazin-2(3H)-yl)acetamide]	Apart from CNS-11	solubilization of the alpha-synuclein	reduction of total aggregates	6.9-21.5 ng/g of brain	5 to 28.4 nM
